Assay results: PubChem BioAssay AID330 (DTP/NCI, 2004)
Several values for one entry are separate records, joined by “and”; a condition that tells them apart may be missing. Equal entries are not always repeated. Toxic doses and inconclusive results are not listed.

Tested on: P388 leukemia ip, CD2F1 mice, survival T/C
Experiment: NCI In Vivo Anticancer Drug Screen. Data for tumor model P388 Leukemia (intraperitoneal) in CD2F1 (CDF1) mice
Conditions: endpoint: median survival time, higher = longer survival
Procedure, shortened: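 Mice carrying the transplanted tumor received test compound or vehicle. Survival was recorded in each group, and the value is the treated-group measurement divided by that of the vehicle-treated control group.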

[1] = dose: 60.0 mg/kg/injection, schedule: Q01DX005 (ip), vehicle: saline with Tween-80
[2] = dose: 120.0 mg/kg/injection, schedule: Q01DX005 (ip), vehicle: saline with Tween-80
[3] = dose: 240.0 mg/kg/injection, schedule: Q01DX005 (ip), vehicle: saline with Tween-80
[4] = dose: 50.0 mg/kg/injection, schedule: Q01DX005 (ip), vehicle: Klucel (hydroxypropylcellulose) (HPC)
[5] = dose: 100.0 mg/kg/injection, schedule: Q01DX005 (ip), vehicle: Klucel (hydroxypropylcellulose) (HPC)
[6] = dose: 200.0 mg/kg/injection, schedule: Q01DX005 (ip), vehicle: Klucel (hydroxypropylcellulose) (HPC)
[7] = dose: 50.0 mg/kg/injection, schedule: Q01DX005 (ip), vehicle: saline with Tween-80
[8] = dose: 100.0 mg/kg/injection, schedule: Q01DX005 (ip), vehicle: saline with Tween-80
[9] = dose: 200.0 mg/kg/injection, schedule: Q01DX005 (ip), vehicle: saline with Tween-80

CC(=O)Nc1ccc(S(=O)(=O)OC(C)C)cc1 was tested, and the T/C (dose: 100.0 mg/kg/injection, schedule: Q04DX003 (ip), vehicle: saline) was 105 % of control, the T/C (dose: 200.0 mg/kg/injection, schedule: Q04DX003 (ip), vehicle: saline) was 113 % of control and the T/C (dose: 400.0 mg/kg/injection, schedule: Q04DX003 (ip), vehicle: saline) was 118 % of control.
For CSC(=N\N=C\c1ccc2c(c1)OCO2)/N=C/N(C)C, the T/C [1] was 98 % of control, the T/C [2] was 97 % of control and the T/C [3] was 94 % of control.
In the case of CCOC(=O)c1ccc(N(CC(O)CN)S(=O)(=O)c2ccc(C)cc2)cc1 (centres undefined), the T/C (dose: 15.0 mg/kg/injection, schedule: Q01DX005 (ip), vehicle: saline with Tween-80) is reported as 102 % of control, the T/C (dose: 30.0 mg/kg/injection, schedule: Q01DX005 (ip), vehicle: saline with Tween-80) is reported as 101 % of control and the T/C [1] is reported as 101 % of control and 92 % of control.
In the case of O=C(Nc1ccccc1)Nc1ccccc1C(=O)O, the T/C (dose: 50.0 mg/kg/injection, schedule: Q04DX003 (ip), vehicle: Klucel (hydroxypropylcellulose) (HPC)) is reported as 100 % of control, the T/C (dose: 100.0 mg/kg/injection, schedule: Q04DX003 (ip), vehicle: Klucel (hydroxypropylcellulose) (HPC)) is reported as 107 % of control and the T/C (dose: 200.0 mg/kg/injection, schedule: Q04DX003 (ip), vehicle: Klucel (hydroxypropylcellulose) (HPC)) is reported as 109 % of control. For the same compound, the T/C (dose: 400.0 mg/kg/injection, schedule: Q04DX003 (ip), vehicle: Klucel (hydroxypropylcellulose) (HPC)) was 93 % of control.
Oc1ccccc1C1NCCc2[nH]cnc21 (centres undefined) was tested, and the T/C [4] was 104 % of control, the T/C [5] was 102 % of control and the T/C [6] was 104 % of control.
With COc1ccc(B(C)N2CCCCC2C)cc1 (centres undefined) the T/C [7] was 102 % of control, the T/C [8] was 100 % of control and the T/C [9] was 98 % of control.
With CC(C)(O)/C=C/C(=O)[C@](C)(O)[C@H]1[C@H](O)C[C@@]2(C)[C@@H]3CC=C4[C@@H](C=C(O)C(=O)C4(C)C)[C@]3(C)C(=O)C[C@]12C the T/C (dose: 0.25 mg/kg/injection, schedule: Q01DX005 (ip), vehicle: water) was 112 % of control, the T/C (dose: 0.25 mg/kg/injection, schedule: Q01DX010 (ip), vehicle: saline) was 100 % of control and the T/C (dose: 0.5 mg/kg/injection, schedule: Q01DX005 (ip), vehicle: water) was 100 % of control. The T/C (dose: 0.5 mg/kg/injection, schedule: Q01DX010 (ip), vehicle: saline) was 104 % of control, the T/C (dose: 1.0 mg/kg/injection, schedule: Q01DX005 (ip), vehicle: water) was 105 % of control and the T/C (dose: 1.0 mg/kg/injection, schedule: Q01DX010 (ip), vehicle: saline) was 109 % of control. The T/C (dose: 2.0 mg/kg/injection, schedule: Q01DX005 (ip), vehicle: water) was 105 % of control.
With COC(=O)C1=CCC23CC[C@H](C(C)(/C=C/C=C(\C)C(=O)O)OC2=O)[C@]3(O)CC1 (some centres undefined) the T/C (dose: 3.88 mg/kg/injection, schedule: Q01DX005 (ip), vehicle: sodium bicarbonate) was 87 % of control, the T/C (dose: 7.75 mg/kg/injection, schedule: Q01DX005 (ip), vehicle: sodium bicarbonate) was 100 % of control and the T/C (dose: 15.5 mg/kg/injection, schedule: Q01DX005 (ip), vehicle: sodium bicarbonate) was 103 % of control. For the same compound, the T/C (dose: 31.0 mg/kg/injection, schedule: Q01DX005 (ip), vehicle: sodium bicarbonate) was 108 % of control.
Oc1c2ccccc2c(O)c2nc3ccccc3nc12 was tested, and the T/C (dose: 50.0 mg/kg/injection, schedule: Q01DX009 (ip), vehicle: saline) was 100 % of control, the T/C (dose: 100.0 mg/kg/injection, schedule: Q01DX009 (ip), vehicle: saline) was 99 % of control and the T/C (dose: 200.0 mg/kg/injection, schedule: Q01DX009 (ip), vehicle: saline) was 100 % of control.
For Cc1cc(NN=O)nc(C)c1C#N, the T/C (dose: 3.12 mg/kg/injection, schedule: Q01DX009 (ip), vehicle: water) was 109 % of control, the T/C (dose: 6.25 mg/kg/injection, schedule: Q01DX009 (ip), vehicle: water) was 123 % of control and the T/C (dose: 12.5 mg/kg/injection, schedule: Q01DX009 (ip), vehicle: water) was 116 % of control. The T/C (dose: 25.0 mg/kg/injection, schedule: Q01DX009 (ip), vehicle: water) was 150 % of control and 151 % of control, the T/C (dose: 50.0 mg/kg/injection, schedule: Q01DX009 (ip), vehicle: water) was 178 % of control and 190 % of control and the T/C (dose: 100.0 mg/kg/injection, schedule: Q01DX009 (ip), vehicle: water) was 178 % of control.
With Cc1nc2ncn(-c3ccccc3)c2c(=O)n1-c1cccnc1 the T/C [4] was 105 % of control, the T/C [5] was 110 % of control and the T/C [6] was 110 % of control.
O=c1[nH]c2ccccc2c2ccccc12 was tested, and the T/C (dose: 100.0 mg/kg/injection, schedule: Q04DX003 (ip), vehicle: saline with Tween-80) was 90 % of control, the T/C (dose: 200.0 mg/kg/injection, schedule: Q04DX003 (ip), vehicle: saline with Tween-80) was 90 % of control and the T/C (dose: 400.0 mg/kg/injection, schedule: Q04DX003 (ip), vehicle: saline with Tween-80) was 90 % of control.
CN(C(=O)C(F)(F)F)[Si](C)(C)C was tested, and the T/C [7] was 100 % of control, the T/C [8] was 105 % of control and the T/C [9] was 95 % of control.
With COc1cccc(C(Nc2ncccn2)c2cc3c(cc2O)OCO3)c1O (centres undefined) the T/C [1] was 103 % of control, the T/C [2] was 94 % of control and the T/C [3] was 94 % of control.
For O=C(CBr)Oc1ccc([N+](=O)[O-])cc1, the T/C [7] was 102 % of control, the T/C [8] was 100 % of control and the T/C [9] was 100 % of control.
